In patent US8445502B2, “Pharmaceutical formulations comprising salts of a protein kinase inhibitor and methods of using same” (Astex Pharmaceuticals, Inc., priority 2007, dated 2013):

Columns and labels:
OVCAR-3 cells = assay: OVCAR-3 cell proliferation; type: cell-based; settings: Homo sapiens
Protocol: The IC50 for MP470.HCl on OVCAR-3 cells proliferation was 0.9 μM (FIG. 4). It appears to have a cytostatic effect on cancer cells in addition to being cytotoxic.

Flt3 (D835Y) (h) = Flt3 (D835Y) (h) (Homo sapiens, UniProt P36888, D835Y); assay: Mutant kinase IC50 screen; type: biochemical
Protocol: (§1) IC50 values for MP470.HCl were determined for four mutant c-Kit kinases, one mutant Flt3 kinase, and two mutant PDGFRα kinases.

PDGFRα (V561D) (h) = PDGFRα (V561D) (h) (Homo sapiens, UniProt P16234, V561D); assay: Mutant kinase IC50 screen; type: biochemical
Sequence of PDGFRα (V561D) (h) (P16234 24-1089 V561D): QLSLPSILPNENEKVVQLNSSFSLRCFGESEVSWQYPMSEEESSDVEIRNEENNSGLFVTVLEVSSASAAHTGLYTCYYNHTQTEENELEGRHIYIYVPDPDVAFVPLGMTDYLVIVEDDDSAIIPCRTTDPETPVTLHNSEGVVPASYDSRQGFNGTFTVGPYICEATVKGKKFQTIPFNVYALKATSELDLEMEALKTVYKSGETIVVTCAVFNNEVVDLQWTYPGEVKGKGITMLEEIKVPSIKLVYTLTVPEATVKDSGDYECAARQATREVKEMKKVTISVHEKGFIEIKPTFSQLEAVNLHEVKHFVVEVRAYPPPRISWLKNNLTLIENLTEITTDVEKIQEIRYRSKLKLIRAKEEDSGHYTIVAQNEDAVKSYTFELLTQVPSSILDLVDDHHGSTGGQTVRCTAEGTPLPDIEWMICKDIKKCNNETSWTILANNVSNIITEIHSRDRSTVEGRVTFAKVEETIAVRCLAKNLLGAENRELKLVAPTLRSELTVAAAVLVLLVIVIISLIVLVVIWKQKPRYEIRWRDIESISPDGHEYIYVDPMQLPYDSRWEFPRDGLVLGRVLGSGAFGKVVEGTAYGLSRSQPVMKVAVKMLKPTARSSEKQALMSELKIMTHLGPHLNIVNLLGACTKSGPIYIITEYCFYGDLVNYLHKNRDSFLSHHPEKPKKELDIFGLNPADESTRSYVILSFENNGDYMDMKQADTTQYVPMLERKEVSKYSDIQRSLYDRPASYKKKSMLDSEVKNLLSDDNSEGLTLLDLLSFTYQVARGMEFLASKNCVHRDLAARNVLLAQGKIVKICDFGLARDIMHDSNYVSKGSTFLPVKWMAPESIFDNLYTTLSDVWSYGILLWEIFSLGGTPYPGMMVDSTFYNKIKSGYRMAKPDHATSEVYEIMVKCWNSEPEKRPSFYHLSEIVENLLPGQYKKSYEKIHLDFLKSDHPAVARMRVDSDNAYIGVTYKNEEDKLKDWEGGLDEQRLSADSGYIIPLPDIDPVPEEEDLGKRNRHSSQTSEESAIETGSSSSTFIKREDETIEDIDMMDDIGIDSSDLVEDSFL
Protocol: as §1

cKit (D816H) (h) = cKit (D816H) (h) (Homo sapiens, UniProt P10721, D816H); assay: Mutant kinase IC50 screen; type: biochemical
Sequence of cKit (D816H) (h) (P10721 26-976 D816H): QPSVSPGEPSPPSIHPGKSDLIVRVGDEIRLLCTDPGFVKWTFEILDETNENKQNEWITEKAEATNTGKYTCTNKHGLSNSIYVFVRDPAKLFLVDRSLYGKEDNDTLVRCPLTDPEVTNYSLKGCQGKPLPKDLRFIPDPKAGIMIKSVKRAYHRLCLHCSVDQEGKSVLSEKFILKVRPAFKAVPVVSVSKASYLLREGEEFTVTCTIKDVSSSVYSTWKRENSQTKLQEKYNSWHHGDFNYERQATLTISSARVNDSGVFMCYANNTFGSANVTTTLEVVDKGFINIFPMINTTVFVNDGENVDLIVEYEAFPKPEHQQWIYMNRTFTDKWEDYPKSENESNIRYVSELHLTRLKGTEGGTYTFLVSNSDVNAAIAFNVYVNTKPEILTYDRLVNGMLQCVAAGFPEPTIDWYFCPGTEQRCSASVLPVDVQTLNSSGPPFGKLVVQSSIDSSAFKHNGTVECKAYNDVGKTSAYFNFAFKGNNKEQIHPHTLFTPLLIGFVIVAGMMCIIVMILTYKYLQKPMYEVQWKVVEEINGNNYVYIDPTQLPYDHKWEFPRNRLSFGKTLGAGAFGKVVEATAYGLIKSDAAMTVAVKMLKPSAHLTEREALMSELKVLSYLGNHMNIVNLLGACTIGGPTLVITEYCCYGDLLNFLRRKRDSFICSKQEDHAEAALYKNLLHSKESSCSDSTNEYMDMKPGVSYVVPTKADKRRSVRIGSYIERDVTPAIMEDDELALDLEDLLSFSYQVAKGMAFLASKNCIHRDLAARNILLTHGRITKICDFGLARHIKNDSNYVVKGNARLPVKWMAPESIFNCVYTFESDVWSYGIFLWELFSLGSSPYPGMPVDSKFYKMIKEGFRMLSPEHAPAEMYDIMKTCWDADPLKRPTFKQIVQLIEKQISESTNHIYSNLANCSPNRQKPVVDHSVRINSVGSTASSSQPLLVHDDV
Protocol: as §1

cKit (D816V) (h) = cKit (D816V) (h) (Homo sapiens, UniProt P10721, D816V); assay: Mutant kinase IC50 screen; type: biochemical
Sequence of cKit (D816V) (h) (P10721 26-976 D816V): as the sequence (P10721 26-976 D816H) above, with H791V counted along it
Protocol: as §1

cKit (V654A) (h) = cKit (V654A) (h) (Homo sapiens, UniProt P10721, V654A); assay: Mutant kinase IC50 screen; type: biochemical
Sequence of cKit (V654A) (h) (P10721 26-976 V654A): as the sequence (P10721 26-976 D816H) above, with V629A, H791D counted along it
Protocol: as §1

PDGFRα (D842V) (h) = PDGFRα (D842V) (h) (Homo sapiens, UniProt P16234, D842V); assay: Mutant kinase IC50 screen; type: biochemical
Sequence of PDGFRα (D842V) (h) (P16234 24-1089 D842V): as the sequence (P16234 24-1089 V561D) above, with D538V, D819V counted along it
Protocol: as §1

cKit (V560G) (h) = cKit (V560G) (h) (Homo sapiens, UniProt P10721, V560G); assay: Mutant kinase IC50 screen; type: biochemical
Sequence of cKit (V560G) (h) (P10721 26-976 V560G): as the sequence (P10721 26-976 D816H) above, with V535G, H791D counted along it
Protocol: as §1

[1] = 28-day chronic oral tolerability and toxicokinetics in dog; type: in vivo; settings: for mean liver weights compared with the control group / mean liver weights relative to brain weights compared with the control group: dosing period; for mean heart weights relative to body weight compared with the control group: recovery period; for AUC / Cmax / half-life: po
Protocol: In a chronic tolerability study of MP470 hydrochloride salt in the dog, groups of six male and six female dogs received 0, 30, 100, or 300 mg/kg/day of the test article (Groups 1-4, respectively) for 28 days. MP470.HCl was administered, by capsule, as a dry powder blend with sodium lauryl sulfate. […] In males, increased incidences of emesis and soft feces/diarrhea for Groups 3-4 and discolored and mucoid feces for Groups 2-4 were observed. In females, increased incidences of emesis and mucoid feces for Group 4, increased incidences of soft feces/diarrhea for Groups 3-4, and discolored feces for Groups 2-4 were noted. These clinical abnormalities were not considered adverse. No test article-related effects on body weight or food consumption were observed during the dosing or recovery periods. No test-article related lesions were noted during ophthalmic examinations and all electrocardiograms of the test and control animals were within normal limits. No test article related effects on hematology or urinalysis parameters were observed during the dosing or recovery periods.
Test article related effects on clinical chemistry parameters during the dosing period were limited to lower mean serum aspartate aminotransferase (75%) and plasma thyroxine (50%) levels for the Group 4 males when compared with the control group. […] Test article related organ weight changes during the recovery period were limited to statistically lower mean heart weights relative to body weight for the Group 3-4 females (85 and 89%, respectively) when compared with the control group.
There was adequate systemic exposure, in general plasma concentration of the test article increased relatively rapidly after treatment, followed by a steady decline for all dose groups and both sexes. Systemic exposure to the test article, as measured by Cmax and AUC, increased with increasing dose in both sexes, but the increase was generally less than dose proportional. No significant differences in exposure to the test article were observed between male and female dogs. No accumulation of the drug was evident as measured by difference in exposure between day 0 and day 27. The time to reach maximal plasma concentration (t-max) ranged from 2-4 hours for Groups 2 and 3 and ranged from 2-8 hours for Group 4. The terminal half-lives varied widely and ranged from 7-84.7 hours for Group 2, 16-47.7 hours for Group 3 and 10.5-28 hours for Group 4. […] There was a large variability in exposure.
A NOEL could not be determined; the no-observed-adverse-effect level (NOAEL) was considered to be 300 mg/kg/day (6000 mg/m2/d) for both sexes. A STD could not be calculated in this study and is likely to be higher than 300 mg/kg/day (6000 mg/m2/d).

[2] = Group 3 females (100 mg/kg/day)
[3] = Group 4 females (300 mg/kg/day)
[4] = both sexes, beagle, dog, in vivo, 30 mg/kg/day
[5] = both sexes, beagle, dog, in vivo, 100 mg/kg/day
[6] = both sexes, beagle, dog, in vivo, 300 mg/kg/day

Question: Which results are given for Cl.S=C(NCc1ccc2c(c1)OCO2)N1CCN(c2ncnc3c2oc2ccccc23)CC1 [MP470.HCl, 4-[1]benzofuro[3,2-d]pyrimidin-4-yl-N-(1,3-benzodioxol-5-ylmethyl)piperazine-1-carbothioamide hydrochloride]?
Answer: IC50 (OVCAR-3 cells): 900 nM; IC50 (Flt3 (D835Y) (h)): 8.05 µM; IC50 (PDGFRα (V561D) (h)): 0.04 µM; IC50 (cKit (D816H) (h)): 0.01 µM; IC50 (cKit (D816V) (h)): 0.95 µM; IC50 (cKit (V654A) (h)): 0.127 µM; IC50 (PDGFRα (D842V) (h)): 0.081 µM; IC50 (cKit (V560G) (h)): 0.034 µM; mean liver weights compared with the control group ([1]; Group 2 females (30 mg/kg/day)): 124%; mean liver weights relative to brain weights compared with the control group ([1]; Group 2 females (30 mg/kg/day)): 117%; mean liver weights compared with the control group [1, 2]: 123%; mean liver weights relative to brain weights compared with the control group [1, 2]: 121%; mean heart weights relative to body weight compared with the control group [1, 2]: 85%; mean liver weights compared with the control group [1, 3]: 119%; mean liver weights relative to brain weights compared with the control group [1, 3]: 120%; mean heart weights relative to body weight compared with the control group [1, 3]: 89%; NOAEL at 28 days ([1]; beagle, dog, in vivo, dogs, both sexes, 28 days, read-out: no-observed-adverse-effect level (NOAEL)): 300 mg/kg/day; AUC [1, 4]: 97.9 to 1130 ng·h/mL; Cmax [1, 4]: 42.5 to 154 ng/mL; half-life [1, 4]: 420 to 5080 min; AUC [1, 5]: 257 to 2530 ng·h/mL; Cmax [1, 5]: 78.3 to 231 ng/mL; half-life [1, 5]: 960 to 2860 min; AUC [1, 6]: 559 to 4890 ng·h/mL; Cmax [1, 6]: 192 to 329 ng/mL; half-life [1, 6]: 630 to 1680 min; STD (severely toxic dose) ([1]; both, beagle, dog, in vivo, 28 days): > 6000 mg/m2/d; mortalities ([1]; dogs, 30, 100 or 300 mg/kg/day by capsule, 28 days): no mortalities; time to reach maximal plasma concentration (t-max) ([1]; dogs, Group 4 (300 mg/kg/day)): 2 to 8 h; time to reach maximal plasma concentration (t-max) ([1]; dogs, Groups 2 and 3 (30 and 100 mg/kg/day)): 2 to 4 h; no-observed-adverse-effect level (NOAEL) ([1]; dogs, both sexes, 28 days): 6000 mg/m2/d
